Assay results from paper PMC4848090, “Mechanistic insight into a peptide hormone signaling complex mediating floral organ abscission” (eLife, 2016).
Values belong to the molecule of their own block, whether it stands above or below them. Non-standard residues stand in square brackets, D forms with d. No end group written: not given here. Hyp = O=C(O)[C@@H]1C[C@@H](O)CN1

Columns and labels:
[1] = target: T1, HAESA ectodomain (residues 20–620) (Arabidopsis thaliana, UniProt P47735); assay: Isothermal titration calorimetry of synthetic IDA-family peptides vs. the isolated HAESA ectodomain; type: binding
T1 construct: We purified the HAESA ectodomain (residues 20–620) from baculovirus-infected insect cells; azurocidin signal peptide (N); made in house; host or cells: Trichoplusia ni Tnao38 insect cells (baculovirus, secreted)
Text: (§1) Synthetic genes coding for the Arabidopsis thaliana HAESA (residues 20–620) and SERK1 ectodomains (residues 24–213, carrying Asn115→Asp and Asn163→Gln mutations), codon optimized for expression in Trichoplusia ni (Geneart, Germany), were cloned into a modified pBAC-6 transfer vector (Novagen, Billerica, MA), providing an azurocidin signal peptide and a C-terminal TEV (tobacco etch virus protease) cleavable Strep-9xHis tandem affinity tag. Recombinant baculoviruses were generated by co-transfecting transfer vectors with linearised baculovirus DNA (ProFold-ER1, AB vector, San Diego, CA) followed by viral amplification in Spodoptera frugiperda Sf9 cells. […] The purified HAESA ectodomain was incubated with a synthetic IDA peptide (YVPIPPSA-Hyp-SKRHN, the N-terminal Tyr residue was added to allow for peptide quantification by UV absorbance) and the SERK1 ectodomain in 1:1:1.5 molar ratio. […]
(§2) ITC experiments were performed using a Nano ITC (TA Instruments, New Castle, DE) with a 1.0 mL standard cell and a 250 μL titration syringe. […] Molar protein concentrations for SERK1 and HAESA were calculated using their molar extinction coefficient and a molecular weight of 27,551 and 74,896 Da, respectively (determined by MALDI-TOF mass spectrometry). […] Data were analyzed using the NanoAnalyze program (version 2.3.6) as provided by the manufacturer.

[2] = test system: HAESA and SERK1 ectodomains; assay: Analytical size-exclusion chromatography of HAESA – SERK1 ectodomain complex formation with peptide; type: binding, Arabidopsis thaliana; conditions: Superdex 200 HR 10/30, 20 mM citric acid pH 5, 100 mM NaCl; peptide 25 μM; HAESA and SERK1 1:1 molar ratio; UV 280 nm
Method: Gel filtration experiments were performed using a Superdex 200 HR 10/30 column (GE Healthcare) pre-equilibrated in 20 mM citric acid (pH 5) and 100 mM NaCl. 100 μL of the isolated HAESA ectodomain (5.5 mg/mL), of the purified SERK1 LRR domain (3 mg/mL) or of mixtures of HAESA and SERK1 (either in the presence or absence of synthetic wild-type IDA, wild-type IDL1 or mutant IDA peptides at a concentration of 25 μM; 10 mg/mL; samples contained HAESA and SERK1 in 1:1 molar ratio) were loaded sequentially onto the column and elution at 0.5 mL/min was monitored by ultraviolet absorbance at 280 nm.

[3] = target: T2, Arabidopsis thaliana HAESA ectodomain (residues 20–620) (Arabidopsis thaliana, UniProt P47735 20-620, N-glycans (glycoprotein of ~75 kDa)); assay: crystal structure; apo HAESA ectodomain crystals soaked in crystallization buffer with 15 mM synthetic peptide; conditions: both partners purified
T2 construct: HAESA, leucine-rich repeat receptor kinase, Arabidopsis thaliana, ectodomain residues 20–620; Synthetic gene, codon optimized; the vector provides an azurocidin signal peptide for secretion; also called HAESA LRR domain; HAESA LRR ectodomain; not shown: Strep, C-terminal, cleaved; 9xHis, C-terminal, cleaved
T2 sequence (looked up): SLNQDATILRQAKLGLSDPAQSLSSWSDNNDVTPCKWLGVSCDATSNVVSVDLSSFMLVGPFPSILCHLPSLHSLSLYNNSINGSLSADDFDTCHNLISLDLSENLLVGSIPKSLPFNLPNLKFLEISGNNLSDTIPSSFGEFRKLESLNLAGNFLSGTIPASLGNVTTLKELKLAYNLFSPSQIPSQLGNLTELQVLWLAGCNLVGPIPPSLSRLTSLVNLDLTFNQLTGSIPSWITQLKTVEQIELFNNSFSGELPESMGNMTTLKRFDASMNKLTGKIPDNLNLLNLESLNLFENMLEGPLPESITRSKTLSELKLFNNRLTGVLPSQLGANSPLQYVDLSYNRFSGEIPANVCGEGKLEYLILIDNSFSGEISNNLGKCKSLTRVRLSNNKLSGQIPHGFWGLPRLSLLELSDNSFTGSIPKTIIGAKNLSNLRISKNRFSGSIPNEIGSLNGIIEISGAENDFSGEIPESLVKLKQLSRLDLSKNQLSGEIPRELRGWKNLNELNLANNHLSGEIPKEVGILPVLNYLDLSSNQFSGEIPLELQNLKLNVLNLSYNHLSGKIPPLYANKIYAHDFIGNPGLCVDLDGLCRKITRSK

[4] = test system: HAESA - IDA; assay: Isothermal titration calorimetry of SERK1 titrated into HAESA in the presence of IDA; type: binding, Arabidopsis thaliana; conditions: ITC, 25°C, pH 5.0; SERK1 (100 μM) titrated into HAESA (10 μM) in the presence of 150 μM wild-type IDA peptide
Text: as §1, §2

[5] = test system: HAESA ectodomain; assay: Isothermal titration calorimetry of SERK1 titrated into HAESA ectodomain only; parameters: species or system Arabidopsis thaliana; conditions: ITC, 25°C, pH 5.0; SERK1 (100 μM) titrated into HAESA (10 μM) in the absence of IDA; n.d. no detectable binding
Text: as §1, §2

Molecule: CC[C@H](C)[C@H](NC(=O)[C@@H]1CCCN1C(=O)[C@@H](NC(=O)[C@@H](N)Cc1ccc(O)cc1)C(C)C)C(=O)N1CCC[C@H]1C(=O)N1CCC[C@H]1C(=O)N[C@@H](CO)C(=O)N[C@@H](C)C(=O)N1C[C@H](O)C[C@H]1C(=O)N[C@@H](CO)C(=O)N[C@@H](CCCCN)C(=O)N[C@@H](CCCNC(=N)N)C(=O)N[C@@H](Cc1c[nH]cn1)C(=O)N[C@@H](CC(N)=O)C(=O)O [IDA]
Kd [1]: 20 ± 0.9 µM

Molecule: IDA Hyp64P: IDA mutant peptide with Hyp64 replaced with proline (YVPIPPSAPSKRHN)
HAESA – SERK1 complex formation in size exclusion chromatography [2]: no complex formation

Molecule: YPIPPSA[Hyp]SKRHNSFVN [IDA-SFVN, C-terminally extended IDA peptide]
binding to the HAESA ectodomain, in words ([1]; ITC): cannot bind

binding result [3]: binds
B1: synthetic IDL1 peptide LVPPSG-Hyp-SMRHN (crystal soak) (peptide)
peptide: LVPPSG[Hyp]SMRHN
notes: IDA-LIKE 1 (IDL1), Arabidopsis thaliana; Hyp written as P; source: synthetic peptide

B2: SERK1: LRR ectodomain of Arabidopsis SERK1 co-receptor (residues 24–213, Asn115→Asp, Asn163→Gln), expressed in insect cells (protein)
chain: ASANLEGDALHTLRVTLVDPNNVLQSWDPTLVNPCTWFHVTCNNENSVIRVDLGNAELSGHLVPELGVLKNLQYLELYSNNITGPIPSNLGDLTNLVSLDLYLNSFSGPIPESLGKLSKLRFLRLNNNSLTGSIPMSLTQITTLQVLDLSNNRLSGSVPDNGSFSLFTPISFANNLDLCGPVTSHPCPGS
modifications: left off: Strep, C-terminal, cleaved | 9xHis, C-terminal, cleaved
notes: LRR ectodomain of Arabidopsis SERK1 co-receptor (residues 24–213, Asn115→Asp, Asn163→Gln), expressed in insect cells
Kd of SERK1, protein in cell: HAESA - IDA [4]: mid-nanomolar range
Kd of SERK1, protein in cell: HAESA [5]: no detectable interaction
